Experiment [1] relates to COLO 205. As to the kind of experiment: NCI human tumor cell panel. The settings on record: for CC50: COLO 205, read-out: Log10 LC50 (converted).
Experiment [2] concerns SK-MEL-5. Description: NCI human tumor cell panel. Particulars: SK-MEL-5, read-out: Log10 LC50 (converted).
Experiment [3] deals with NCI-H226. Description: NCI human tumor cell panel. Particulars: NCI-H226, read-out: Log10 LC50 (converted).
The subject of experiment [4] is SK-OV-3. Description: NCI human tumor cell panel. Particulars: SK-OV-3, read-out: Log10 LC50 (converted).
For experiment [5], the system named is HL-60(TB). Description: NCI human tumor cell panel. Particulars: for CC50: HL-60, read-out: Log10 LC50 (converted); for IC (TGI): HL-60, read-out: Log10 TGI.
Experiment [6] relates to RPMI-8226. Description: NCI human tumor cell panel. In kind it is cell-based. Particulars: RPMI-8226, read-out: Log10 LC50 (converted).
Experiment [7] concerns SF-268. Description: NCI human tumor cell panel. Format: cell-based. Particulars: SF-268, read-out: Log10 LC50 (converted).
For experiment [8], the system named is PC-3. As to the kind of experiment: NCI human tumor cell panel. In kind it is cell-based. Particulars: PC-3, read-out: Log10 LC50 (converted).
The subject of experiment [9] is MCF7/ADR-RES. As to the kind of experiment: NCI human tumor cell panel. In kind it is cell-based. Particulars: MCF7, read-out: Log10 LC50 (converted).
Experiment [10] relates to RXF-393. Description: NCI human tumor cell panel. In kind it is cell-based. The settings on record: RXF 393, read-out: Log10 LC50 (converted).
The subject of experiment [11] is SN12C. Description: NCI human tumor cell panel. In kind it is cell-based. The settings on record: read-out: Log10 LC50 (converted).
Experiment [12] relates to CAKI-1. Description: NCI human tumor cell panel. In kind it is cell-based. The settings on record: CAKI-1, read-out: Log10 LC50 (converted).
The test system of experiment [13] is MCF7. Description: NCI human tumor cell panel. The settings on record: MCF7, read-out: Log10 LC50 (converted). Format: cell-based.
In experiment [14] the test system is UACC-257. Description: NCI human tumor cell panel. In kind it is cell-based. Particulars: UACC-257, read-out: Log10 LC50 (converted).
Experiment [15] concerns T-47D. As to the kind of experiment: NCI human tumor cell panel. In kind it is cell-based. Particulars: T47D, read-out: Log10 LC50 (converted).
Experiment [16] concerns K-562. As to the kind of experiment: NCI human tumor cell panel. Format: cell-based. Particulars: K562, read-out: Log10 LC50 (converted).
Experiment [17] concerns HS 578T. Description: NCI human tumor cell panel. Format: cell-based. Particulars: read-out: Log10 LC50 (converted).
For experiment [18], the system named is HT29. As to the kind of experiment: NCI human tumor cell panel. Particulars: HT-29, read-out: Log10 LC50 (converted).
Experiment [19] relates to human tumor cell line panels. Description: NCI human tumor cell panel, whole-panel summary (mean graph) and lines without a row head. Particulars: for Log10 LC50, Delta / Log10 TGI, Delta / Log10 TGI, Range: whole panel.

The LC50 is the concentration that kills 50% of the test population.

As to `OCc1ccc(-c2ccc(-c3ccc[se]3)s2)[se]1`, the CC50 in experiment [1] is 66.1 µM; in [2] it was greater than 100 µM; in [3], 0.525 µM; in [4], greater than 100 µM; in [5] it was greater than 100 µM; in [6] it was greater than 100 µM. In addition, the CC50 is greater than 100 µM in experiment [8]; 97.7 µM in experiment [9]; greater than 100 µM in [10]; greater than 100 µM in experiment [11]; greater than 100 µM in experiment [13]; 0.457 µM in experiment [14]. The CC50 in experiment [15], in [17] and in [18] was greater than 100 µM in each case. The IC (TGI) in experiment [1] (COLO 205, read-out: Log10 TGI) was 12.6 µM. Further, the LC50 (concentration killing 50% of cells) in experiment [7] was greater than 100 µM. Moreover, the figures for the LC50 in experiment [12] and in experiment [16] were 64.6 µM and greater than 100 µM, respectively.

As to `O=Cc1ccc(-c2ccc(-c3ccc(C=O)[se]3)s2)[se]1`, the CC50 in [1] is greater than 100 µM; in experiment [2] it was greater than 100 µM; in [3], 2.45 µM; in experiment [4] it was greater than 100 µM; in [5], greater than 100 µM; in [6], greater than 100 µM. Further, the CC50 in [8] is greater than 100 µM; in experiment [9], greater than 100 µM; in experiment [10], greater than 100 µM; in [11] it was greater than 100 µM; in [13], greater than 100 µM; in experiment [14] it was 6.92 µM. Besides, the CC50 in [15], in experiment [17] and in [18] was greater than 100 µM throughout. In addition, the IC (TGI) in experiment [5] was greater than 100 µM. In addition, the “Log10 LC50, Delta” value in [19] is reported as -4.07. The “Log10 TGI, Delta” value in [19] was -4.17. In experiment [19], the “Log10 TGI, Range” value is listed as 2.18. Further, in [7], the LC50 (concentration killing 50% of cells) is greater than 100 µM. Also, the LC50 in experiment [12] and in experiment [16] was greater than 100 µM in each case.

In the case of `O=Cc1ccc(-c2ccc(-c3ccc(C=O)s3)[se]2)s1`, the CC50 in experiment [1] was greater than 100 µM; in [2] it was greater than 100 µM; in experiment [3] it was 8.51 µM; in [4] it was greater than 100 µM; in experiment [5] it was greater than 100 µM; in experiment [6] it was greater than 100 µM. The CC50 is greater than 100 µM in [8]; greater than 100 µM in experiment [9]; greater than 100 µM in experiment [10]; greater than 100 µM in [11]; greater than 100 µM in experiment [13]; 5.75 µM in experiment [14]. Moreover, the CC50 in experiment [15], in experiment [17] and in experiment [18] was greater than 100 µM throughout. Besides, in experiment [5], the IC (TGI) is greater than 100 µM. Moreover, the “Log10 LC50, Delta” value in experiment [19] is -4.07. Moreover, the “Log10 TGI, Delta” value in experiment [19] is given as -4.21. Besides, the GI50 in [19] (Homo sapiens, read-out: Log10 GI50, Delta, Delta, whole panel (converted)) is 17.8 µM. The “Log10 TGI, Range” value in experiment [19] is given as 1.61. Further, in experiment [7], the LC50 (concentration killing 50% of cells) is greater than 100 µM. In addition, the LC50 in experiment [12] and in experiment [16] was greater than 100 µM in each case.

(Values after patent EP1021178B1, “SELENOPHENE ANTI-TUMOR AGENTS” (Purdue Research Foundation, priority 1996, dated 1997).)
